Experimental data published in ChEMBL document CHEMBL4831506, “Discovery of novel trimethoxyphenylbenzo[d]oxazoles as dual tubulin/PDE4 inhibitors capable of inducing apoptosis at G2/M phase arrest in glioma and lung cancer cells” (Eur J Med Chem, 2021).

Experiments:
A549 [1] = assay: Induction of apoptosis in human A549 cells assessed as increase in necrotic cells at 200 nM measured after 24 hrs by PI/FITC analysis (reference value: 0.365%); format: functional
A549 [2] = assay: Cell cycle arrest in human A549 cells assessed as G0/G1 phase at 200 nM measured after 24 hrs by propidium iodide staining based flow cytometry analysis (reference value: 79.14%); format: functional
U-251 [3] = assay: Cell cycle arrest in human U-251 cells assessed as G2/M phase at 500 nM measured after 24 hrs by propidium iodide staining based flow cytometry analysis (reference value: 14.43%); format: functional
A549 [4] = assay: Antiproliferative activity against human A549 cells after 48 hrs by MTT assay; format: functional, cell-based; conditions: A549, 48 h
A549 [5] = assay: Induction of apoptosis in human A549 cells assessed as increase in late apoptotic cells at 50 nM measured after 24 hrs by PI/FITC analysis (reference value: 0.955%); format: functional
A549 [6] = assay: Cell cycle arrest in human A549 cells assessed as increase in cyclin B1 expression by Western blot analysis; format: functional, cell-based; conditions: dose 50-500 nM
A549 [7] = assay: Cell cycle arrest in human A549 cells assessed as G0/G1 phase at 50 nM measured after 24 hrs by propidium iodide staining based flow cytometry analysis (reference value: 79.14%); format: functional
U-251 [8] = assay: Induction of apoptosis in human U-251 cells assessed as increase in necrotic cells at 500 nM measured after 24 hrs by PI/FITC analysis (reference value: 0.301%); format: functional
U-251 [9] = assay: Induction of apoptosis in human U-251 cells assessed as increase in viable cells at 200 nM measured after 24 hrs by PI/FITC analysis (reference value: 98.3%); format: functional
MCF7 = assay: Antiproliferative activity against human MCF7 cells after 48 hrs by MTT assay; format: functional, cell-based; conditions: MCF7, 48 h
A549 [10] = assay: Induction of apoptosis in human A549 cells assessed as increase in early apoptotic cells at 500 nM measured after 24 hrs by PI/FITC analysis (reference value: 0.955%); format: functional
U-251 [11] = assay: Cell cycle arrest in human U-251 cells assessed as G2/M phase at 1000 nM measured after 24 hrs by propidium iodide based flow cytometry analysis (reference value: 14.43%); format: functional
U-251 [12] = assay: Induction of apoptosis in human U-251 cells assessed as increase in apoptotic cells at 500 nM measured after 24 hrs by PI/FITC analysis (reference value: 2.39%); format: functional
A549 [13] = assay: Cell cycle arrest in human A549 cells assessed as S phase at 50 nM measured after 24 hrs by propidium iodide staining based flow cytometry analysis (reference value: 14.78%); format: functional
U-251 [14] = assay: Induction of apoptosis in human U-251 cells assessed as increase in early apoptotic cells at 500 nM measured after 24 hrs by PI/FITC analysis (reference value: 1.12%); format: functional
U-251 [15] = assay: Cell cycle arrest in human U-251 cells assessed as G0/G1 phase at 1000 nM measured after 24 hrs by propidium iodide staining based flow cytometry analysis (reference value: 67.34%); format: functional
A549 [16] = assay: Induction of apoptosis in human A549 cells assessed as increase in early apoptotic cells at 200 nM measured after 24 hrs by PI/FITC analysis (reference value: 0.955%); format: functional
U-251 [17] = assay: Induction of apoptosis in human U-251 cells assessed as increase in viable cells at 1000 nM measured after 24 hrs by PI/FITC analysis (reference value: 98.3%); format: functional
A549 [18] = assay: Induction of apoptosis in human A549 cells assessed as increase in late apoptotic cells at 200 nM measured after 24 hrs by PI/FITC analysis (reference value: 0.955%); format: functional
A549 [19] = assay: Induction of apoptosis in human A549 cells assessed as increase in late apoptotic cells at 500 nM measured after 24 hrs by PI/FITC analysis (reference value: 0.955%); format: functional
A549 [20] = assay: Cell cycle arrest in human A549 cells assessed as G0/G1 phase at 500 nM incubated for 24 hrs by propidium iodide staining based flow cytometry analysis (reference value: 79.14%); format: functional
U-251 [21] = assay: Cell cycle arrest in human U-251 cells assessed as G2/M phase at 200 nM measured after 24 hrs by propidium iodide staining based flow cytometry analysis (reference value: 14.43%); format: functional
A549 [22] = assay: Induction of apoptosis in human A549 cells assessed as increase in apoptotic cells at 500 nM measured after 24 hrs by PI/FITC analysis (reference value: 1.437%); format: functional
A549 [23] = assay: Induction of apoptosis in human A549 cells assessed as increase in viable cells at 500 nM measured after 24 hrs by PI/FITC analysis (reference value: 98.4%); format: functional
U-251 [24] = assay: Cell cycle arrest in human U-251 cells assessed as S phase at 500 nM measured after 24 hrs by propidium iodide staining based flow cytometry analysis (reference value: 18.23%); format: functional
U-251 [25] = assay: Induction of apoptosis in human U-251 cells assessed as increase in necrotic cells at 1000 nM measured after 24 hrs by PI/FITC analysis (reference value: 0.301%); format: functional
Sus scrofa [26] = species: Sus scrofa; assay: Inhibition of pig brain tubulin polymerization at 1 uM by spectrometric method relative to control; format: tissue-based
NCI-H460 = assay: Antiproliferative activity against human NCI-H460 cells after 48 hrs by MTT assay; format: functional, cell-based; conditions: NCI-H460, 48 h
U-251 [27] = assay: Induction of apoptosis in human U-251 cells assessed as increase in late apoptotic cells at 1000 nM measured after 24 hrs by PI/FITC analysis (reference value: 0.311%); format: functional
U-251 [28] = assay: Cell cycle arrest in human U-251 cells assessed as G0/G1 phase at 500 nM measured after 24 hrs by propidium iodide staining based flow cytometry analysis (reference value: 67.34%); format: functional
U-251 [29] = assay: Induction of apoptosis in human U-251 cells assessed as increase in early apoptotic cells at 1000 nM measured after 24 hrs by PI/FITC analysis (reference value: 1.12%); format: functional
Sus scrofa [30] = species: Sus scrofa; assay: Inhibition of pig brain tubulin polymerization at 10 uM by spectrometric method relative to control; format: tissue-based
U-251 [31] = assay: Induction of apoptosis in human U-251 cells assessed as increase in late apoptotic cells at 500 nM measured after 24 hrs by PI/FITC analysis (reference value: 0.311%); format: functional
A549 [32] = assay: Induction of apoptosis in human A549 cells assessed as increase in early apoptotic cells at 50 nM measured after 24 hrs by PI/FITC analysis (reference value: 0.955%); format: functional
U-251 [33] = assay: Cell cycle arrest in human U-251 cells assessed as S phase at 200 nM measured after 24 hrs by propidium iodide staining based flow cytometry analysis (reference value: 18.23%); format: functional
A549 [34] = assay: Cell cycle arrest in human A549 cells assessed as S phase at 200 nM measured after 24 hrs by propidium iodide staining based flow cytometry analysis (reference value: 14.78%); format: functional
A549 [35] = assay: Induction of apoptosis in human A549 cells assessed as increase in necrotic cells at 50 nM measured after 24 hrs by PI/FITC analysis (reference value: 0.365%); format: functional

`COc1cc(-c2cccc3nc(-c4ccc5cc[nH]c5c4)oc23)cc(OC)c1OC` showed an Activity (A549 [1]) of 1.61%, an Activity (A549 [2]) of 15.24% and an Activity (U-251 [3]) of 42.9%. For the same molecule, the IC50 (A549 [4]) was 55 nM, the Activity (A549 [5]) was 7.23% and the Activity (A549 [6]) was “Dose-Dependent Effect”. The Activity (A549 [7]) was 55.78%, the Activity (U-251 [8]) was 2.92% and the Activity (U-251 [9]) was 98%. The IC50 (MCF7) was greater than 25000 nM, the Activity (A549 [10]) was 11.1% and the Activity (U-251 [11]) was 71.69%. For the same molecule, the Activity (U-251 [12]) was 20.98%, the Activity (A549 [13]) was 24.79% and the Activity (U-251 [14]) was 4.61%. It also gave an Activity (U-251 [15]) of 13.54%, an Activity (A549 [16]) of 9.7% and an Activity (U-251 [17]) of 77.4%. For the same molecule, the Activity (A549 [18]) was 0.85%, the Activity (A549 [19]) was 15.4% and the Activity (A549 [20]) was 3.89%. The Activity (U-251 [21]) was 37.97%, the Activity (A549 [22]) was 26.5% and the Activity (A549 [23]) was 70.7%. It also gave an Activity (U-251 [24]) of 22.47%, an Activity (U-251 [25]) of 1.66% and an inhibition (Sus scrofa [26]) of 40%. It also gave an IC50 (NCI-H460) of 24 nM, an Activity (U-251 [27]) of 15.8% and an Activity (U-251 [28]) of 34.64%. The Activity (U-251 [29]) was 5.18%, the inhibition (Sus scrofa [30]) was 86% and the Activity (U-251 [31]) was 9.13%. The Activity (A549 [32]) was 5.32%, the Activity (U-251 [33]) was 18.32% and the Activity (A549 [34]) was 23.43%. It also gave an Activity (A549 [35]) of 0.603%.
